Measurements published in ChEMBL document CHEMBL1124314, “Development of phosphonate derivatives of gadolinium chelates for NMR imaging of calcified soft tissues” (J Med Chem, 1989).

Key:
Rattus norvegicus [1] = species: Rattus norvegicus; experiment: Biodistribution in rat bone in the presence of 0.10 M GdDTPA-BDP; format: ADME, organism-based, Bone element; settings: in vivo
Rattus norvegicus [2] = species: Rattus norvegicus; experiment: Biodistribution in rat bone in the presence of 0.10 M/0.11 M GdDTPA-AEP; format: ADME, organism-based, Bone element; settings: in vivo
Rattus norvegicus [3] = species: Rattus norvegicus; experiment: Biodistribution in rat bone in the presence of GdDTPA at 1 hr; format: ADME, organism-based, Bone element; settings: in vivo
Rattus norvegicus [4] = species: Rattus norvegicus; experiment: Biodistribution in rat bone in the presence of GdDTPA-HPDP at 1 hr; format: ADME, organism-based, Bone element; settings: in vivo
Rattus norvegicus [5] = species: Rattus norvegicus; experiment: Biodistribution in rat bone in the presence of NAC Gd/0.01 M GdDTPA-HPDP; format: ADME, organism-based, Bone element; settings: in vivo
Rattus norvegicus [6] = species: Rattus norvegicus; experiment: Biodistribution in rat heart in the presence of GdDTPA at 1 hr; format: ADME, organism-based; settings: in vivo
Rattus norvegicus [7] = species: Rattus norvegicus; experiment: Biodistribution in rat heart in the presence of GdDTPA at 4 hr; format: ADME, organism-based; settings: in vivo
Rattus norvegicus [8] = species: Rattus norvegicus; experiment: Biodistribution in rat heart in the presence of GdDTPA-HPDP at 1 hr; format: ADME, organism-based; settings: in vivo
Rattus norvegicus [9] = species: Rattus norvegicus; experiment: Biodistribution in rat heart in the presence of GdDTPA-HPDP at 30 min; format: ADME, organism-based; settings: in vivo, 0.5 h
Rattus norvegicus [10] = species: Rattus norvegicus; experiment: Biodistribution in rat heart in the presence of NAC Gd/0.01 M GdDTPA-HPDP; format: ADME, organism-based; settings: in vivo
Rattus norvegicus [11] = species: Rattus norvegicus; experiment: Biodistribution in rat kidney in the presence of 0.01 M/0.01 M GdDTPA-AEP; format: ADME, organism-based; settings: in vivo
Rattus norvegicus [12] = species: Rattus norvegicus; experiment: Biodistribution in rat kidney in the presence of 0.05 M/0.05 M GdDTPA-AEP; format: ADME, organism-based; settings: in vivo
Rattus norvegicus [13] = species: Rattus norvegicus; experiment: Biodistribution in rat kidney in the presence of 0.10 M GdDTPA-BDP; format: ADME, organism-based; settings: in vivo
Rattus norvegicus [14] = species: Rattus norvegicus; experiment: Biodistribution in rat kidney in the presence of NAC Gd/0.01 M GdDTPA-HPDP; format: ADME, organism-based; settings: in vivo
Rattus norvegicus [15] = species: Rattus norvegicus; experiment: Biodistribution in rat liver in the presence of GdDTPA-HPDP at 15 min; format: ADME, organism-based; settings: in vivo, 0.25 h
Rattus norvegicus [16] = species: Rattus norvegicus; experiment: Biodistribution in rat liver in the presence of GdDTPA-HPDP at 4 hr; format: ADME, organism-based; settings: in vivo
Rattus norvegicus [17] = species: Rattus norvegicus; experiment: Biodistribution in rat muscle in the presence of GdDTPA-BDP at 4 hr; format: ADME, organism-based, Muscle tissue; settings: in vivo
Rattus norvegicus [18] = species: Rattus norvegicus; experiment: Biodistribution in rat muscle in the presence of GdDTPA-BDPat 30 min; format: ADME, organism-based, Muscle tissue; settings: in vivo, 0.5 h
Rattus norvegicus [19] = species: Rattus norvegicus; experiment: Biodistribution in rat muscle in the presence of GdDTPA-HPDP at 4 hr; format: ADME, organism-based, Muscle tissue; settings: in vivo
Rattus norvegicus [20] = species: Rattus norvegicus; experiment: Biodistribution in rat liver in the presence of 0.01 M GdDTPA-BDP; format: ADME, organism-based; settings: in vivo
Rattus norvegicus [21] = species: Rattus norvegicus; experiment: Biodistribution in rat liver in the presence of 0.05 M/0.05 M GdDTPA-AEP; format: ADME, organism-based; settings: in vivo
Rattus norvegicus [22] = species: Rattus norvegicus; experiment: Biodistribution in rat liver in the presence of 0.05 M/0.08 M GdDTPA-HPDP; format: ADME, organism-based; settings: in vivo
Rattus norvegicus [23] = species: Rattus norvegicus; experiment: Biodistribution in rat liver in the presence of 0.10 M GdDTPA-BDP; format: ADME, organism-based; settings: in vivo
Rattus norvegicus [24] = species: Rattus norvegicus; experiment: Biodistribution in rat liver in the presence of GdDTPA at 1 hr; format: ADME, organism-based; settings: in vivo
Rattus norvegicus [25] = species: Rattus norvegicus; experiment: Biodistribution in rat liver in the presence of GdDTPA at 4 hr; format: ADME, organism-based; settings: in vivo
Rattus norvegicus [26] = species: Rattus norvegicus; experiment: Biodistribution in rat blood in the presence of GdDTPA-HPDP at 15 min; format: ADME, organism-based; settings: in vivo, 0.25 h
Rattus norvegicus [27] = species: Rattus norvegicus; experiment: Biodistribution in rat blood in the presence of NAC Gd/0.01 M GdDTPA-HPDP; format: ADME, organism-based; settings: in vivo
Rattus norvegicus [28] = species: Rattus norvegicus; experiment: Biodistribution in rat bone in the presence of 0.01 M/0.01 M GdDTPA-AEP; format: ADME, organism-based, Bone element; settings: in vivo
Rattus norvegicus [29] = species: Rattus norvegicus; experiment: Biodistribution in rat bone in the presence of 0.05 M GdDTPA-BDP; format: ADME, organism-based, Bone element; settings: in vivo
Rattus norvegicus [30] = species: Rattus norvegicus; experiment: Biodistribution in rat blood in the presence of 0.05 M GdDTPA-BDP; format: ADME, organism-based; settings: in vivo
Rattus norvegicus [31] = species: Rattus norvegicus; experiment: Biodistribution in rat blood in the presence of 0.05 M/0.05 M GdDTPA-AEP; format: ADME, organism-based; settings: in vivo
Rattus norvegicus [32] = species: Rattus norvegicus; experiment: Biodistribution in rat blood in the presence of GdDTPA at 1 hr; format: ADME, organism-based; settings: in vivo
Rattus norvegicus [33] = species: Rattus norvegicus; experiment: Biodistribution in rat heart in the presence of 0.05 M GdDTPA-BDP; format: ADME, organism-based; settings: in vivo
Rattus norvegicus [34] = species: Rattus norvegicus; experiment: Biodistribution in rat heart in the presence of GdDTPA-HPDPat 15 min; format: ADME, organism-based; settings: in vivo, 0.25 h
Rattus norvegicus [35] = species: Rattus norvegicus; experiment: Biodistribution in rat bone in the presence of GdDTPA at 20 min; settings: in vivo, 0.33 h
Rattus norvegicus [36] = species: Rattus norvegicus; experiment: Biodistribution in rat heart in the presence of GdDTPA at 20 min; settings: in vivo, 0.33 h
Rattus norvegicus [37] = species: Rattus norvegicus; experiment: Biodistribution in rat bone in the presence of GdDTPA-BDP at 1 h; settings: in vivo
Rattus norvegicus [38] = species: Rattus norvegicus; experiment: Biodistribution in rat heart in the presence of GdDTPA-BDP at 4 hr; settings: in vivo
Rattus norvegicus [39] = species: Rattus norvegicus; experiment: Biodistribution in rat blood in the presence of GdDTPA-BDP at 20 min; settings: in vivo, 0.33 h
Rattus norvegicus [40] = species: Rattus norvegicus; experiment: Biodistribution in rat liver in the presence of GdDTPA-BDP at 20 min; settings: in vivo, 0.33 h
Rattus norvegicus [41] = species: Rattus norvegicus; experiment: Biodistribution in rat heart in the presence of 0.10 M/0.11 M GdDTPA-HPDP; settings: in vivo
Rattus norvegicus [42] = species: Rattus norvegicus; experiment: Biodistribution in rat bone in the presence of 0.001 M/0.008 M GdDTPA-AEP; settings: in vivo
Rattus norvegicus [43] = species: Rattus norvegicus; experiment: Biodistribution in rat heart in the presence of 0.001 M/0.008 M GdDTPA-AEP; settings: in vivo
Rattus norvegicus [44] = species: Rattus norvegicus; experiment: Biodistribution in rat kidney in the presence of 0.001 M/0.008 M GdDTPA-AEP; settings: in vivo

ID/organ (Rattus norvegicus [1]): 13.3%
ID/organ (Rattus norvegicus [2]): 16.4%
ID/organ (Rattus norvegicus [3]): 0.779%
ID/organ (Rattus norvegicus [4]): 20%
ID/organ (Rattus norvegicus [5]): 65.7%
ID/organ (Rattus norvegicus [6]): 0.019%
ID/organ (Rattus norvegicus [7]): 0.002%
ID/organ (Rattus norvegicus [8]): 0.011%
ID/organ (Rattus norvegicus [9]): 0.04%
ID/organ (Rattus norvegicus [10]): 0.032%
ID/organ (Rattus norvegicus [11]): 0.222%
ID/organ (Rattus norvegicus [12]): 0.264%
ID/organ (Rattus norvegicus [13]): 0.29%
ID/organ (Rattus norvegicus [14]): 0.273%
ID/organ (Rattus norvegicus [15]): 0.745%
ID/organ (Rattus norvegicus [16]): 0.202%
ID/organ (Rattus norvegicus [17]): 4.5%
ID/organ (Rattus norvegicus [18]): 5.17%
ID/organ (Rattus norvegicus [19]): 0.223%
ID/organ (Rattus norvegicus [20]): 5.21%
ID/organ (Rattus norvegicus [21]): 14.8%
ID/organ (Rattus norvegicus [22]): 0.109%
ID/organ (Rattus norvegicus [23]): 0.795%
ID/organ (Rattus norvegicus [24]): 0.267%
ID/organ (Rattus norvegicus [25]): 0.163%
ID/organ (Rattus norvegicus [26]): 4.07%
ID/organ (Rattus norvegicus [27]): 0.26%
ID/organ (Rattus norvegicus [28]): 0.641%
ID/organ (Rattus norvegicus [29]): 16.3%
ID/organ (Rattus norvegicus [30]): 2.53%
ID/organ (Rattus norvegicus [31]): 0.556%
ID/organ (Rattus norvegicus [32]): 0.094%
ID/organ (Rattus norvegicus [33]): 0.048%
ID/organ (Rattus norvegicus [34]): 0.081%
ID/organ (Rattus norvegicus [35]): 3.5%
ID/organ (Rattus norvegicus [36]): 0.097%
ID/organ (Rattus norvegicus [37]): 17.6%
ID/organ (Rattus norvegicus [38]): 0.037%
ID/organ (Rattus norvegicus [39]): 4.43%
ID/organ (Rattus norvegicus [40]): 1.02%
ID/organ (Rattus norvegicus [41]): 0.006%
ID/organ (Rattus norvegicus [42]): 0.264%
ID/organ (Rattus norvegicus [43]): 0.004%
ID/organ (Rattus norvegicus [44]): 0.268%
SMILES: O=C(O)CN(CCN(CC(=O)O)CC(=O)O)CCN(CC(=O)O)CC(=O)O [PENTETIC ACID]
